# Patent publication US20140105996A1, “Avian-Based Treatment” (Cocky Smart Pty Ltd, priority 2011, published 2014)
# System: A2058 melanoma cells
# Assay: Growth of A2058 melanoma cells with EP-2 or TPP (Examples 1-3)
# Assay type: cell-based
# Experimental: Saturated solutions of bird extract EP-2, 10 ng/mL triphenyl phosphate (TPP) or control media were used to saturate growth medium containing melanoma cells (A2058 Melanoma cells) at a concentration of approximately 1.2×10^4 cells/well or 1.0×10^4 cells/well. All results are average cell counts for experiments performed in triplicate (see FIG. 1). TPP was investigated on the basis of the findings in Zurhaar WO2008/019452 “Insect Repellent” that the insect repellent factor in an avian extract was TPP.
# Pooled solvent vehicle (ethanol, methanol and pentane—used for EP-2 extraction), avian extract EP-2 and TPP were applied to 4×10^4 A2058 cells in 12 well plates.
# To further investigate the effect of EP-2 on cells in general, a ⅕ dilution of avian extract EP-2 was placed on 1×10^4 A2058 melanoma cells and HEK293 non-cancerous human embryonic kidney cells.
smiles,measurement,setting,value
"O=P(Oc1ccccc1)(Oc1ccccc1)Oc1ccccc1 [TPP, Triphenyl phosphate]",lower growth rate than cells containing control medium,"Example 1, by day 9, 10 ng/mL TPP",25%
same,effect on cell growth,Example 2,moderate effect
